“Also recorded” adds a separate entry of the source.
How the values were obtained:
[1] = system: mouse adipocytes (3T3-L1); experiment: Adipocyte differentiation inhibition, Oil Red O staining; assay type: cell-based; conditions: 14 days
Experimental: The effect of piperine on adipocyte differentiation and growth was investigated using mouse adipocytes (3T3-L1). Preadipocytes 3T3L1 were placed on a 12-well plate and cultured to confluency in a 5% CO2 incubator at 37° C. using DMEM containing 1% penicillin-streptomycin, 1% non-essential amino acids and 10% fetal bovine serum (FBS). The cultured 3T3-L1 cells were differentiated into adipocytes by culturing for 2 days in a medium containing 0.5 mM methylisobutylxanthine/1 μM dexamethasone/1 μg/mL insulin (DMI). The cells were differentiated into mature adipocytes by further culturing for 2 days in DMEM containing 1 μg/mL insulin. Subsequently, they were further cultured for 10 days while changing DMEM every other day to obtain fully differentiated adipocytes. Starting from the day when DMI was added to the 3T3-L1 cells, piperine was treated at concentrations of 0.1, 1, 10, 50 and 100 μM every other day. Piperine was purchased from Sigma and used after being dissolved in DMSO. For negative control, only DMSO was used. After the culturing for a total of 14 days, when the cells were fully differentiated, the medium was removed and the fats contained in the differentiated adipocytes were stained. […] To measure the triglyceride level of the differentiated 3T3-L1 cells, the stained cells were dissolved in 1 mL of isobutanol and OD value was measured at 600 nm.

[2] = system: C57BL/6J mice; experiment: Body weight, food efficiency and abdominal fat-pad weights in mice on high-fat diet; assay type: in vivo, mouse; conditions: 10 weeks
Experimental: The high-fat diet (HFD, 40% fat calorie, 17 g lard+3% corn oil/100 g diet) was used to induce obesity and piperine-containing diet had the same composition as the HFD except for containing 0.05% piperine. Normal diet (ND) was prepared according to AIN-76 rodent diet (see Table 1). [table] 5-week-old male C57BL/6J mice were accustomed to the laboratory environment for a week while feeding solid feed. […] Diet was provided between 10 and 11 a.m. every day along with water. Diet intake was measured every day, and body weight was measured every 3 days. In order to avoid transient body weight increase due to feed intake, body weight was measured 2 hours after removing the feedbox. […] In addition, food efficiency ratio (FER) was calculated by dividing accumulated body weight gain during test period into total diet uptake from the first day of test diet to sacrifice day. […] Further, regarding accumulation of abdominal fat, after fasting the test animal for at least 12 hours and anesthetizing with diethyl ether, blood, liver and abdominal fat tissues (epididymal, perirenal, mesenteric and retroperitoneal fat) were taken and weighed after washing with 0.1 M PBS (pH 7.4).

[3] = system: Swiss albino mice; conditions: piperine 100 mg/kg once a day for 4 weeks before benzo[α]pyrene 50 mg/kg twice a week for 16 weeks; cited from earlier work
[4] = 0.05% piperine in HFD, per unit body weight, FIG. 4

## O=C(/C=C/C=C/c1ccc2c(c1)OCO2)N1CCCCC1 [piperine]
[1]; piperine 0.1, 1, 10, 50 and 100 μM every other day, vs DMSO, FIG. 1A
  concentration at which differentiation of preadipocytes 3T3-L1 was decreased in a concentration-dependent manner: ≥ 10 µM
[1]; piperine 0.1-100 μM, stain dissolved in isobutanol, FIG. 1B
  amount of intracellular fat (OD value at 600 nm of fats stained with Oil Red O): concentration-dependently reduced the amount of intracellular fat; also recorded: decrease in OD value in a concentration-dependent manner
[2]; 0.05% piperine in HFD, FIG. 2
  decrease in body weight gain (accumulated) compared to high-fat diet control group: 68%
  decrease in final body weight compared to high-fat diet control group: 40%
[2]; 0.05% piperine in HFD, FIG. 3
  daily food intake compared to high-fat diet control group: reduced; also recorded: significant decrease
[2]; 0.05% piperine in HFD, body weight gain / total diet intake, FIG. 3
  reduction of food efficiency ratio (FER) compared to high-fat diet control group: 64%
[2]; [4]
  reduction of epididymal fat-pad weight compared to high-fat diet control group: 63%
  reduction of mesenteric fat-pad weight compared to high-fat diet control group: 68%
  reduction of perirenal fat-pad weight compared to high-fat diet control group: 85%
  reduction of retroperitoneal fat-pad weight compared to high-fat diet control group: 63%
  reduction of total abdominal (visceral) fat-pad weights compared to high-fat diet control group: 66%
[2]; piperine-supplemented diet
  feed efficiency compared to control group (HFD), in words: reduced
[3]
  antioxidant indicators (SOD, CAT, GPX, GSH, vitamin E, vitamin C) in the tissues: significantly high values

From patent US20110288125A1, “NOVEL USE OF PIPERINE” (Industry-Academic Cooperation Foundation, Yonsei University, priority 2009, published 2011)
